Entries after “also recorded” stand apart in the source; their conditions may differ.
Key:
[1] = system: BRAF V600-mutation positive metastatic melanoma; details: subjects with BRAF V600-mutation positive metastatic melanoma, Phase III study; cited from earlier work
[2] = Physical stability, photo-stability and relative solubility of the drug substance; format: physicochemical
From the text: Several additional challenges exist concerning the use of Compound A in a pediatric formulation.
The potential for unacceptable levels of photo-degradation is of particular importance since photo-catalyzed degradation products may be potentially toxic.

[3] = Exposure and absorption upon in vivo administration
From the text: Suitably the powder for oral solution (POS) of the current invention contain micronized Compound A where at least 90% of the particles of Compound A are from 1 to 20 microns, suitably from 2.2 to 10.5 microns, such formulations provide an acceptable exposure/absorption profile. Suitably the powder for oral solution (POS) of the current invention contains micronized Compound A where at least 50% of the particles of Compound A are from 1 to 6 microns, suitably from 1.5 to 4.3 microns, such formulations provide an acceptable exposure/absorption profile. Suitably the powder for oral solution (POS) of the current invention contains micronized Compound A where at least 10% of the particles of Compound A are from 0.01 to 3.0 microns, suitably from 0.77 to 1.3 microns, such formulations provide an acceptable exposure/absorption profile. Such formulations help provide safe and effective treatment.

[4] = Aqueous solubility of trametinib in the presence of various solubilizers (FIG. 1); format: physicochemical
From the text: FIG. 1 depicts the aqueous solubility of trametinib in the presence of various solubilizers.
As used herein, “solubilizer” is a substance (liquid or solid) that helps to keep the drug uniformly dispersed and dissolved in solution. A solubilizer prevents recrystallization and precipitation of the dissolved drug out of solution. For use in the present invention, suitable solubilizers include, but are not limited to, hypromellose, polyvinylpyrrolidone, sulfobutylether B-cyclodextrin (Captisol) and hydroxypropyl B-cyclodextrin (Cavitron). A combination of solubilizers can also be used. […] Suitably, the amount of solubilizer in a formulation according to the invention will be selected from: about 30 to 95%; suitably about 50 to 80%; suitably about 65 to 75%; by weight of the final product. Suitably, the amount of solubilizer in a formulation according to the invention will be selected from: about 30%; suitably about 35%, suitably about 40%, suitably about 45%, suitably about 50%, suitably about 55%, suitably about 60%, suitably about 65%, suitably about 70%, suitably about 75%, suitably about 80%, suitably about 85%, suitably about 90%, and suitably about 95%, by weight of the final product.

[5] = Solubility profile at 0.05 mg/mL using solubilizers as a function of time (FIG. 4); format: physicochemical; details: 30 days, 25° C. and 60% relative humidity
[6] = Trametinib concentration profile as a function of time and Cavitron concentration (FIG. 2)
[7] = Effect of HPMC and solubilizers on aqueous solubility of trametinib (FIG. 3); format: physicochemical; details: HPMC present in a cavitron solution, initial 1 mg/mL

Structure (SMILES)	anti-tumor activity [1]	physical stability of the solvate (desolvation) ([2]; high humidity or aqueous environment, handling and formulation)	photo-stability ([2]; light)	exposure and absorption [3]	aqueous solubility ([4]; hypromellose and hydroxypropyl B-cyclodextrin combined)	aqueous solubility ([4]; in hydroxypropyl B-cyclodextrin (Cavitron) formulation)	aqueous solubility ([4]; in polyethylene glycol (PEG) solution)	aqueous solubility ([4]; in polyethylene glycol (PEG) solution, listed as Trametinib)	aqueous solubility ([4]; in propylene glycol solution)	aqueous solubility ([4]; in propylene glycol solution, listed as Trametinib)	solubility and solution stability over time ([5]; captisol solution)	solubility and solution stability over time ([5]; cavitron solution)	trametinib concentration remaining in solution ([6]; Cavitron solutions, initial concentration 1 mg/mL, after five days)	stability of solution (precipitation) [7]	solubility relative to Compound A [2]	precipitation out of solution ([6]; starting concentration ~0.05 mg/mL, conditions of FIG. 2)
CC(=O)Nc1cccc(-n2c(=O)n(C3CC3)c(=O)c3c(Nc4ccc(I)cc4F)n(C)c(=O)c(C)c32)c1 [Compound A, N-{3-[3-cyclopropyl-5-(2-fluoro-4-iodo-phenylamino)-6,8-dimethyl-2,4,7-trioxo-3,4,6,7-tetrahydro-2H-pyrido[4,3-d]pyrimidin-1-yl]phenyl}acetamide dimethyl sulfoxide solvate]	has shown anti-tumor activity	favors conversion from the dimethyl sulfoxide solvate to the de-solvated form; also recorded: can undergo desolvation	very sensitive to light; also recorded: can suffer from photo-instability	poor exposure and absorption	good aqueous solubility	greatest solubility	very low aqueous solubility	generally not soluble	very low aqueous solubility	generally not soluble	able to maintain the solubility and stabilize the solution for 30 days	able to maintain the solubility and stabilize the solution for 30 days	7-10 % of the initial concentration	increases the stability of trametinib solution	–	–
CC(=O)Nc1cccc(-n2c(=O)n(C3CC3)c(=O)c3c(Nc4ccc(I)cc4F)n(C)c(=O)c(C)c32)c1 [Compound B, N-{3-[3-cyclopropyl-5-(2-fluoro-4-iodo-phenylamino)-6,8-dimethyl-2,4,7-trioxo-3,4,6,7-tetrahydro-2H-pyrido[4,3-d]pyrimidin-1-yl]phenyl}acetamide]	–	–	–	–	–	–	–	–	–	–	–	–	–	–	much less soluble than Compound A	no significant amount of the drug will precipitate out of solution

— patent US20150328320A1, “Novel Pharmaceutical Composition” (GLAXOSMITHKLINE LLC, priority 2012, published 2015)
